# According to EP4671251A1, “SALTS OF COMPOUNDS, CRYSTAL FORMS THEREOF, PREPARATION METHOD THEREFOR AND USE THEREOF” (TenNor Therapeutics (Suzhou) Limited, priority 2023, dated 2024):
# Where a name gives a salt, the structure may show the parent alone. Read-outs that look alike come from different tables or passages of the source.
# Columns and labels:
# Type in all cases: physicochemical
# [1] = Approximate solubility of the starting free base at room temperature; conditions: room temperature (about 25 °C)
# Procedure: The approximate solubility of the starting free base of the exemplary compound of formula (II) in 5 single solvents and 9 mixed solvents at room temperature (about 25 °C) was also tested. Table 1. Approximate solubility (mg/mL) of the starting free base at room temperature
# [2] = Acceleration stability test at 40 °C and 75% humidity, one month
# Procedure: The commercially available amorphous form of rifabutin and the crystal forms V and VI of the present application were separately placed in a constant-temperature and constant-humidity incubator at 40 °C and 75% humidity for acceleration test. After one month, the change in purity was determined.
# [3] = Stability test, open conditions at 25 °C/60% RH and 40 °C/75% RH for 3 days; conditions: for Change in appearance / Change in crystal form / Purity: 3 days
# Procedure: Samples were separately taken from two crystal forms I and II of the monotriphenylacetate salt of the exemplary compound of formula (II) and left to stand in open conditions at 25 °C/60% RH and 40 °C/75% RH for 3 days.
# Table 4. Summary of stability study data
# [4] = Kinetic solubility in water and four biological media at 37 °C; conditions: for S: Solubility / solubility at 1 h / solubility at 4 h / solubility at 24 h: about 10 mg/mL sample added; for S: Solubility: LOQ = 0.099 µg/mL; for solubility at 1 h / solubility at 4 h / solubility at 24 h: read-out: S: Solubility; for FC: change in appearance: solid by XRPD; for pH: supernatant
# Procedure: About 10 mg/mL of sample (on a free base basis) was added to various biological media. After shaking at 100 rpm at 37 °C (for 1/4/24 h), samples 01-05 were centrifuged, and the solids were collected for XRPD test, while the supernatant was used for detection and pH measurement.
# Table 9. Kinetic solubility of crystal form I in water and four biological media at 37 °C (mg/mL)
# [5] = Hygroscopicity test (dynamic vapor sorption, DVS)
# Source text: The DVS results of the crystal form I (FIG. 12A) show slow weight gains from 0 to 60% RH and 70% RH to 95% RH, and a rapid weight gain from 60% RH to 70% RH.
smiles,measurement,setting,value
CO[C@H]1/C=C/O[C@@]2(C)Oc3c(C)c(O)c4c(c3C2=O)C2=NC3(CCN(CCn5c([N+](=O)[O-])cnc5C)CC3)NC2=C(NC(=O)/C(C)=C\C=C\[C@H](C)[C@H](O)[C@@H](C)[C@@H](O)[C@@H](C)[C@H](OC(C)=O)[C@@H]1C)C4=O [starting free base],solubility,[1]; 2-MeTHF,> 41400 µg/mL
same,solubility,[1]; 2-MeTHF:MTBE (1:1) v:v,> 42400 µg/mL
same,solubility,[1]; EtOAc,> 40800 µg/mL
same,solubility,[1]; EtOAc:MTBE (1:1) v:v,> 41400 µg/mL
same,solubility,[1]; IPA,> 39200 µg/mL
same,solubility,[1]; IPA:H2O (1:1) v:v,20500 to 41000 µg/mL
same,solubility,[1]; IPA:H2O (3:1) v:v,> 41200 µg/mL
same,solubility,[1]; IPA:H2O (5:1) v:v,> 41200 µg/mL
same,solubility,[1]; IPA:H2O (9:1) v:v,> 41400 µg/mL
same,solubility,[1]; IPA:H2O (19:1) v:v,> 42200 µg/mL
same,solubility,[1]; IPA:n-Heptane (1:1) v:v,20700 to 41400 µg/mL
same,solubility,[1]; MTBE,6700 to 20100 µg/mL
same,solubility,[1]; Toluene,> 41400 µg/mL
same,solubility,[1]; Toluene:MTBE (1:1) v:v,> 42400 µg/mL
"CO[C@H]1/C=C/O[C@@]2(C)Oc3c(C)c(O)c4c(c3C2=O)C2=NC3(CCN(CC(C)C)CC3)NC2=C(NC(=O)/C(C)=C\C=C\[C@H](C)[C@H](O)[C@@H](C)[C@@H](O)[C@@H](C)[C@H](OC(C)=O)[C@@H]1C)C4=O [amorphous product of rifabutin, rifabutin]",Purity,[2]; after one month at 40 °C and 75% humidity,95.54%
same,purity of the original sample,"[2]; original sample, before storage",95.9%
CO[C@H]1/C=C/O[C@@]2(C)Oc3c(C)c(O)c4c(c3C2=O)C2=NC3(CCN(CCn5c([N+](=O)[O-])cnc5C)CC3)NC2=C(NC(=O)/C(C)=C\C=C\[C@H](C)[C@H](O)[C@@H](C)[C@@H](O)[C@@H](C)[C@H](OC(C)=O)[C@@H]1C)C4=O [Crystal form I of triphenylacetate salt],Change in appearance,[3]; 25 °C/60% RH Open,No change
same,Change in crystal form,[3]; 25 °C/60% RH Open,No change
same,Purity,[3]; 25 °C/60% RH Open,98.09 Area%
same,Change in appearance,[3]; 40 °C/75% RH Open,No change
same,Change in crystal form,[3]; 40 °C/75% RH Open,No change
same,Purity,[3]; 40 °C/75% RH Open,98.22 Area%
same,Starting sample Purity,"[3]; starting sample, before storage",97.23 Area%
same,S: Solubility,"[4]; Water, 1 h",<LOQ
same,S: Solubility,"[4]; Water, 4 h",<LOQ
same,S: Solubility,"[4]; Water, 24 h",<LOQ
same,solubility at 1 h,"[4]; fassgf, pH 1.6, FaSSGF (1.6), 1 h",1300 µg/mL
same,solubility at 4 h,"[4]; fassgf, pH 1.6, FaSSGF (1.6), 4 h",1600 µg/mL
same,solubility at 24 h,"[4]; fassgf, pH 1.6, FaSSGF (1.6), 24 h",~1600 µg/mL
same,solubility at 1 h,"[4]; fassif, pH 6.5, FaSSIF (6.5), 1 h",12 µg/mL
same,solubility at 4 h,"[4]; fassif, pH 6.5, FaSSIF (6.5), 4 h",5.7 µg/mL
same,solubility at 24 h,"[4]; fassif, pH 6.5, FaSSIF (6.5), 24 h",7.5 µg/mL
same,solubility at 1 h,"[4]; fessgf, pH 5, FeSSGF (5.0), 1 h",120 µg/mL
same,solubility at 4 h,"[4]; fessgf, pH 5, FeSSGF (5.0), 4 h",180 µg/mL
same,solubility at 24 h,"[4]; fessgf, pH 5, FeSSGF (5.0), 24 h",220 µg/mL
same,solubility at 1 h,"[4]; fessif, pH 5, FeSSIF (5.0), 1 h",120 µg/mL
same,solubility at 4 h,"[4]; fessif, pH 5, FeSSIF (5.0), 4 h",120 µg/mL
same,solubility at 24 h,"[4]; fessif, pH 5, FeSSIF (5.0), 24 h",140 µg/mL
same,FC: change in appearance,"[4]; FaSSGF (1.6), 1 h",No
same,FC: change in appearance,"[4]; FaSSGF (1.6), 4 h",No
same,FC: change in appearance,"[4]; FaSSGF (1.6), 24 h",No
same,FC: change in appearance,"[4]; FaSSIF (6.5), 1 h",No
same,FC: change in appearance,"[4]; FaSSIF (6.5), 4 h",No
same,FC: change in appearance,"[4]; FaSSIF (6.5), 24 h",No
same,FC: change in appearance,"[4]; FeSSGF (5.0), 1 h",No
same,FC: change in appearance,"[4]; FeSSGF (5.0), 4 h",No
same,FC: change in appearance,"[4]; FeSSGF (5.0), 24 h",No
same,FC: change in appearance,"[4]; FeSSIF (5.0), 1 h",No
same,FC: change in appearance,"[4]; FeSSIF (5.0), 4 h",No
same,FC: change in appearance,"[4]; FeSSIF (5.0), 24 h",No
same,FC: change in appearance,"[4]; Water, 1 h",No
same,FC: change in appearance,"[4]; Water, 4 h",No
same,FC: change in appearance,"[4]; Water, 24 h",No
same,pH,"[4]; FaSSGF (1.6), 1 h",1.55
same,pH,"[4]; FaSSGF (1.6), 4 h",1.57
same,pH,"[4]; FaSSGF (1.6), 24 h",1.54
same,pH,"[4]; FaSSIF (6.5), 1 h",6.37
same,pH,"[4]; FaSSIF (6.5), 4 h",6.37
same,pH,"[4]; FaSSIF (6.5), 24 h",6.40
same,pH,"[4]; FeSSGF (5.0), 1 h",5.03
same,pH,"[4]; FeSSGF (5.0), 4 h",5.07
same,pH,"[4]; FeSSGF (5.0), 24 h",5.07
same,pH,"[4]; FeSSIF (5.0), 1 h",4.85
same,pH,"[4]; FeSSIF (5.0), 4 h",4.84
same,pH,"[4]; FeSSIF (5.0), 24 h",4.84
same,pH,"[4]; Water, 1 h",4.45
same,pH,"[4]; Water, 4 h",4.44
same,pH,"[4]; Water, 24 h",4.62
same,water absorption,"[5]; 25 °C/80% RH (relative to 0% RH), about 1 H2O",1.5%
same,hygroscopicity,"[5]; DVS, 25 °C/80% RH",slightly hygroscopic
same,change in appearance of crystal form before/after DVS evaluation (XRPD),[5]; before/after DVS,no change
